Reference: article PMC5130005, “Indolin-2-one compounds targeting thioredoxin reductase as potential anticancer drug leads” (Oncotarget, 2016)

Tests used:
[1] = tested on: Trx in HCT 116 cells; assay: Trx redox state in cells (IAA alkylation, native PAGE); format: cell-based, human; conditions: 40 μM; 4, 8 and 14 h
Method: The redox state of cellular Trx was assessed as previously described. HCT 116 cells were seeded in 60 mm plates and allowed to grow to 70% confluency. Compounds 4 or 5 were then added to the cells for 4, 8 or 14 h. Lysates were collected in lysis buffer (50 mM Tris-HCl pH 8.3, 2 mM EDTA, 6 M guanidine HCl, 0.5% Triton-X, 50 mM IAA). The lysates were incubated in the dark for 30 min at room temperature, sonicated briefly, and finally passed through a MicroSpin G-25 column (GE Healthcare) to remove guanidine and unreacted IAA. The desalted lysates were subjected to native PAGE, followed by transfer of separated proteins onto nitrocellulose membranes for Western blot analysis using anti-Trx antibody.

[2] = biological target: T1, TrxR in Keap1-null (Keap1−/−) MEFs (Mus musculus, UniProt Q9JMH6); assay: TrxR activity in Keap1-null MEF lysates; format: cell-based; conditions: 5 h treatment, 20 to 40 μM
T1 sequence (Q9JMH6 115-613 limits assumed): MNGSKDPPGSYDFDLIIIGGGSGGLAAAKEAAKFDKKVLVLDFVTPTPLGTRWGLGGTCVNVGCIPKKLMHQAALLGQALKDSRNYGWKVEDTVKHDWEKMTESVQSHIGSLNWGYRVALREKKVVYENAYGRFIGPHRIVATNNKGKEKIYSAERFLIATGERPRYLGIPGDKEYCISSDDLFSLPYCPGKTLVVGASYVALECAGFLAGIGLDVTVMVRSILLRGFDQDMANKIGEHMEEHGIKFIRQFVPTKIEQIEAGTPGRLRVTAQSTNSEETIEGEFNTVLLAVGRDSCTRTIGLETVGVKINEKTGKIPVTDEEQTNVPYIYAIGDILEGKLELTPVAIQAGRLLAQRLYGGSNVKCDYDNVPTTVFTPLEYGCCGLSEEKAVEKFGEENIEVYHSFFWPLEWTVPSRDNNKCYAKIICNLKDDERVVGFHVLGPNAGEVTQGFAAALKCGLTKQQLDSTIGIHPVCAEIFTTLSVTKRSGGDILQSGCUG
Method: Cells were seeded onto 100 mm or 60 mm culture plates and upon reaching ~70% confluency, they were subjected to drug treatment for indicated durations. Pellets of compound-treated or DMSO control cells comprising both attached and floating cells were collected and lysed in lysis buffer (25 mM Tris-HCl pH 7.5, 100 mM NaCl, 2.5 mM EDTA, 2.5 mM EGTA, 20 mM NaF, 1 mM Na3VO4, 20 mM sodium β-glycerophosphate, 10 mM sodium pyrophosphate, 0.5% Triton X-100) with freshly added protease inhibitor cocktail (Roche Diagnostics). Prior to being used in Western blot analysis and/or cellular TrxR, GR, Trx and GPx activity determination, lysates were precleared by centrifugation and protein concentrations were determined using a modified Bradford assay (Bio-Rad Laboratories) as described in the manufacturer's manual. This procedure for collecting whole cell lysate was used for all experiments except for the Trx-redox state determination experiment. […]
Freshly collected cell lysates were used for measurement of activity of cellular Trx and TrxR. […] The amount of free thiols generated from insulin reduction was determined by DTNB reduction at 412 nm using the VersaMax microplate reader. […] For each sample, Trx or TrxR activity was calculated as the absorbance at 412 nm subtracted from that of the corresponding control and expressed as a percentage of the activity measured in DMSO-treated cells.

[3] = tested on: HCT 116 cells; assay: total cellular thiols; format: cell-based, human; conditions: 20-50 μM
[4] = biological target: T2, recombinant rat TrxR (Rattus norvegicus, UniProt O89049); assay: reversibility of TrxR inhibition (desalting, DTNB reduction assay); format: biochemical; conditions: 20 μM, 30 min, then desalting; activity followed 2 h post-desalting
T2 construct: made in house
T2 sequence (O89049 1-499): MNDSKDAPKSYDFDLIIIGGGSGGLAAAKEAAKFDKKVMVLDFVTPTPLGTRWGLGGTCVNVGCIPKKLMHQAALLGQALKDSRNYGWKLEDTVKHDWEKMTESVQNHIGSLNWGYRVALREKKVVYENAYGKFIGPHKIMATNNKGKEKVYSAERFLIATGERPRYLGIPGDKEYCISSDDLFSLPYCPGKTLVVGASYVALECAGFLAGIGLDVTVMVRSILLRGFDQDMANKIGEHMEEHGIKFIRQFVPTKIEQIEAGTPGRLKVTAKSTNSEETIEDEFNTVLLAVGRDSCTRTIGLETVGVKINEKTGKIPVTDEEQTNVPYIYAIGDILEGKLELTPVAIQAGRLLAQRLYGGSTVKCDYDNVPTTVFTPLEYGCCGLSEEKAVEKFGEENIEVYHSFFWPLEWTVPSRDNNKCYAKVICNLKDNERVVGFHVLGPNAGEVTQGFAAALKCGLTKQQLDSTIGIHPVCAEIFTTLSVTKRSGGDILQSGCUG

[5] = tested on: HCT 116 cells; assay: ROS determination (carboxy-H2DCFDA, DCF fluorescence); format: cell-based, human; conditions: 50 μM, 3 h, versus DMSO control
Method: Oxidative stress was assessed through estimating the level of ROS using the H2DCFDA assay with modifications. Briefly, HCT 116 cells were seeded in 6-well plates and incubated for 24-48 h at 37°C till 70-80% confluency. They were treated with H2O2 (200 μM) or compounds 4 and 5 (20, 30, 40 or 50 μM) for 3 h. Following treatment, cells were washed with PBS and incubated with 10 μM carboxy-H2DCFDA in PBS at 37°C in the dark for 45 min to allow reaction between taken up H2DCF and ROS. The cells were collected, washed with cold PBS, pelleted, resuspended in 200 μl of PBS and transferred to wells in a 96-well black fluorescence plate. The fluorescence intensities were measured at an excitation wavelength of 485 nm and an emission wavelength of 530 nm using a Tecan Infinite M200 Pro microplate reader. The results were expressed as a percentage of fluorescence intensities measured in drug-treated cells over those produced in DMSO-treated cells.

Compound | Trx oxidation in HCT 116 cells [1] | TrxR activity in Keap1−/− MEFs [2] | total cellular thiols [3] | reversibility of TrxR inhibition [4] | DCF fluorescence (cellular oxidative stress) [5]
CCCCN1C(=O)/C(=C/C(C)=O)c2ccccc21 [Compound 4] | time-dependent oxidation of Trx | elevated TrxR activity | depletion of total cellular thiols in a dose-dependent manner | irreversible inhibitors of TrxR | markedly increased DCF fluorescence
CC(=O)/C=C1/C(=O)N(Cc2ccccc2)c2ccccc21 [Compound 5] | time-dependent oxidation of Trx | elevated TrxR activity | depletion of total cellular thiols in a dose-dependent manner | irreversible inhibitors of TrxR | markedly increased DCF fluorescence
